Measurements published in patent publication US20170350889A1, “CELL IDENTIFICATION METHOD” (Centre National De La Recherche Scientifique (CNRS), priority 2014, published 2017).

Tested on: macaques
Experiment: Replication of the SIV virus expressing Cre recombinase after infection in macaques (viral RNA in plasma)
Assay type: in vivo
Conditions: one macaque infected, FIG. 17
Source text: FIG. 17 is a graph showing the replication of the SIV virus expressing Cre recombinase evaluated by the number of copies of viral RNA/ml of plasma (y-axis) after infection in macaques, as a function of time (in days).
The dose and the route of infection are able to be modified as a function of the scientific aims of the experimentation. A method is briefly described below: • Infect the macaques intravenously (50 AID50) or mucosally (50-5000 AID50). • Monitor the viral load in kinetic conditions by quantification of the viral RNAs in the plasma of the infected animals.

Substance: SIVmac239-Nef-IRES-Cre: SIVmac239 virus expressing Cre recombinase via Nef-IRES-Cre (SEQ ID NO: 25; plasmid SEQ ID NO: 13)
- replication dynamics (copies of viral RNA/ml of plasma over time): normal replication dynamics
